Data reported in publication PMC5407577, “Functional and genetic evidence that nucleoside transport is highly conserved in Leishmania species: Implications for pyrimidine-based chemotherapy” (International Journal for Parasitology: Drugs and Drug …, 2017).

Experiments:
[1] = biological target: LmajUUT1; assay: [3H]-uridine uptake by L. major promastigotes, high-affinity uracil-sensitive component; assay type: cell-based, Leishmania major; conditions: inhibition of 0.25 μM [3H]-uridine uptake
Method: (§1) Using the standard uptake technique as described for T. brucei and Leishmania species ([Wallace et al., 2002], [Al-Salabi and De Koning, 2005], [Gudin et al., 2006]), the dose- or time-dependent uptake of radiolabeled permeants was investigated.
(§2) Briefly, cells in the mid-to-late logarithmic stage of growth were harvested by centrifugation for 10 min at 1500×g. The cells were washed twice with transport assay buffer (AB: 33 mM HEPES, 98 mM NaCl, 4.6 mM KCl, 0.55 mM CaCl2, 0.07 mM MgSO4, 5.8 mM NaH2PO4, 0.3 mM MgCl2, 23 mM NaHCO3, 14 mM glucose, pH 7.3), resuspended at a density of 10^8 cells ml^−1 in AB, and left for 20–30 min at room temperature to recover from centrifugation stress. One hundred microliters of cell suspension was incubated at ambient temperature for a predetermined time with 100 μl radiolabeled test compound, in the presence or absence of unlabeled substrate or other competitive inhibitors. The incubation was terminated by the addition of ice-cold stop solution (AB containing saturating levels, usually 10 mM, of unlabeled permeant) and centrifugation through oil for 1 min at 13,000 × g. […] Radioactivity was determined by liquid scintillation counting in a Beckman LS6000 TA scintillation counter. Saturation data, inhibition data, and time courses were plotted to equations for linear or non-linear regression (hyperbolic or sigmoid curves), as appropriate. All experiments were performed in triplicate and on at least three independent occasions.

[2] = biological target: LmajNT1; assay: [3H]-uridine uptake by L. major promastigotes, low-affinity component; assay type: cell-based, Leishmania major; conditions: inhibition of 0.25 μM [3H]-uridine uptake
Method: as §1, §2

[3] = biological target: LmexUU1; assay type: cell-based, Leishmania mexicana
Method: as §1, §2

[4] = biological target: LmajNT1; assay: [3H]-thymidine uptake by L. major promastigotes; assay type: cell-based, Leishmania major
Method: as §1, §2
Subsequent experiments were performed with a 5 min incubation time.

[5] = tested on: Lmaj5F2′dURes; assay: microbe, parasite or virus in culture; assay type: cell-based, Leishmania major
Method: (§3) Sensitivity assays of Leishmania strains to various drugs using the viability dye resazurin (Alamar Blue) (Sigma-Aldrich) were performed using a protocol adapted from [Räz et al. (1997)], as described ([Al-Salabi et al., 2003], [Gould et al., 2008]). Pentamidine and diminazene were used as non-nucleoside controls and were obtained from Sigma-Aldrich, as were many purines, pyrimidines, and analogs, with the exceptions of 2-thiouridine and 4-thiouridine (TriLink BioTechnologies, San Diego, CA); 5′-deoxyuridine, and 2′-3′-dideoxyuridine (Carbosynth, Compton, UK); 5-fluoro-2′-deoxyuridine (Fluka); and 2-thiouracil (ICN Biomedicals, Cambridge, UK). A preliminary promastigote culture was diluted to a density of 2 × 10^6 cells/ml, of which 100 μl was added to wells of 96-well plates pre-loaded with 100 μl of doubling dilutions of test compounds, resulting in a final density of 1 × 10^6 cells/ml; the dilutions were over 2 rows of the plate (23 concentrations), with the last well containing only medium and serving as the no-drug control. The plates were incubated at 25 °C for 72 h before adding the Alamar Blue dye (20 μl of 12.5 mg resazurin sodium salt (Sigma) in 100 ml phosphate buffered saline (PBS; pH 7.4)). Since Leishmania parasites metabolize the Alamar Blue dye slower than trypanosomes ([Gould et al., 2008]), the cells were incubated with the dye for a further period of 48 h before measuring the fluorescence, using a FLUOstar Optima fluorimeter (BMG Labtech) at wavelengths of 544 nm for excitation and 620 nm for emission. […] Each experiment was performed independently at least 4 times; statistical significance was determined using Student's unpaired t-test.

[6] = tested on: Lmaj5FURes; assay: microbe, parasite or virus in culture; assay type: cell-based, Leishmania major
Method: as §3

[7] = tested on: L. mexicana promastigotes WT; assay: Alamar blue drug sensitivity assay, L. mexicana WT; assay type: cell-based, Leishmania mexicana; conditions: Leishmania mexicana, 72 h, WT promastigotes, 72 h + 48 h with dye; n ≥ 4; read-out: EC50
Method: as §3

[8] = tested on: Lmex5F2′dURes; assay: microbe, parasite or virus in culture; assay type: cell-based, Leishmania mexicana
Method: as §3

[9] = tested on: Lmex5FURes; assay: microbe, parasite or virus in culture; assay type: cell-based, Leishmania mexicana
Method: as §3

[10] = tested on: L. major promastigotes WT; assay: Alamar blue drug sensitivity assay, L. major WT; assay type: cell-based, Leishmania major; conditions: Leishmania major, 72 h, WT promastigotes, 72 h + 48 h with dye; n ≥ 4; read-out: EC50
Method: as §3

[11] = biological target: LmexNT1; assay type: cell-based, Leishmania mexicana; conditions: inhibition of 0.25 μM [3H]-uridine uptake in the presence of 1 mM uracil
Method: as §1, §2

[12] = tested on: L. major promastigotes; assay: metabolomic analysis of treated L. major promastigotes; assay type: cell-based, Leishmania major; conditions: 100 μM, 8 h
Method: (§4) Metabolomics analysis of the Leishmania promastigotes was undertaken in triplicate, exactly as described ([Ali et al., 2013a]). Briefly, cells were grown to log phase stage, resuspended at 2 × 10^6 cells/ml in 50 ml HOMEM/FBS and incubated 8 h with 100 μM of test compound (standard conditions) before transfer to a 50-ml centrifuge tube for instantaneous cooling (dry ice/ethanol bath, 4 °C) and centrifugation (2500 rpm, 10 min, 4 °C). The pellet was lysed with 200 μl of chloroform/methanol/water (1:3:1 v/v/v) containing mass spectrometry standards, and vigorous mixing (1 h, 4 °C); cell debris was removed by centrifugation and the metabolite extracts were stored in HPLC vials at −80 °C. Control samples were prepared in parallel and included untreated cells, unused growth medium, test compound solution and extraction solvent blanks. The analysis used a hydrophilic interaction liquid chromatography (HILIC-LC) fitted with a zwitterionic ZIC-pHILIC column (Merck Sequant), coupled to high resolution mass spectrometry (MS) using a Thermo Q-Exactive, and metabolomic data outputs were analyzed using the IDEOM application (http://mzmatch.sourceforge.net/ideom.php) with default parameters ([Creek et al., 2012]) exactly as described ([Ali et al., 2013a]). The lower limit of detection was set to 500 intensity units for all reported metabolites, in order to prevent spurious identification of low level signals.
(§5) The mechanism of action of the fluorinated pyrimidines was investigated using a metabolomics approach, where promastigotes of L. mexicana and L. major were incubated for 8 h with 100 μM of either 5-FU, 5F-2′dUrd or 5F-Urd prior to metabolite extraction and mass spectrometric analysis as described ([Ali et al., 2013a], [Alkhaldi et al., 2015]). These conditions were chosen to allow for significant metabolite accumulation while not affecting cell viability or growth rate, which could broadly affect metabolite levels.

[13] = tested on: L. mexicana promastigotes; assay: metabolomic analysis of treated L. mexicana promastigotes; assay type: cell-based, Leishmania mexicana; conditions: 100 μM, 8 h
Method: as §4, §5

[14] = n = 3, SEM, untreated: not detected (<500)

## O=c1ccn([C@H]2C[C@H](O)[C@@H](CO)O2)c(=O)[nH]1 [2′-deoxyuridine]
[1]
  Ki: 24.9 ± 8.6 µM
[2]
  Ki: 24.9 ± 8.6 µM
[3]; inhibition of [3H]-uracil uptake, 4 min
  Ki: 9.3 ± 2.6 µM
[3]; n = 3
  maximal inhibition of [3H]-uracil transport: approximately 85%
[4]; inhibition of 0.25 μM [3H]-thymidine uptake (total LmajNT1.1 + LmajNT1.2), 5 min
  Ki: 112 ± 17 µM

## O=c1[nH]c(=O)n([C@H]2C[C@H](O)[C@@H](CO)O2)cc1F [5F-2′dUrd, 5-Fluoro-2′-deoxyuridine]
[5]; Leishmania major
  EC50: 381 ± 83 µM
[5]; Lmaj5F2′dURes vs L. major WT
  RF (Resistance Factor = IC50 (resistant clone)/IC50 (WT)): 224
[6]; Leishmania major
  EC50: 6.1 ± 0.5 µM
[6]; Lmaj5FURes vs L. major WT
  RF (Resistance Factor = IC50 (resistant clone)/IC50 (WT)): 3.6
[7]
  EC50: ~1.5 µM
[8]; Leishmania mexicana
  EC50: > 5000 µM
[8]; Lmex5F2′dURes vs L. mexicana WT
  RF (Resistance Factor = IC50 (resistant clone)/IC50 (WT)): >3500
[9]; Leishmania mexicana
  EC50: 1.5 ± 0.2 µM
[9]; Lmex5FURes vs L. mexicana WT
  RF (Resistance Factor = IC50 (resistant clone)/IC50 (WT)): 1.07
[10]
  EC50: ~1.5 µM
[11]
  Ki: 6.99 ± 0.11 µM
[12]; [14]
  dCMP peak intensity: not detected
[12]; untreated: 712 ± 105
  dUrd peak intensity: 7615 ± 1236^∗ arbitrary units
[12]; untreated: 995 ± 109
  dCTP peak intensity: 7036 ± 1684 arbitrary units
[12]; untreated: 2992 ± 173
  dAdo peak intensity: 14181 ± 3275 arbitrary units
[12]; untreated: 6192 ± 910
  dAMP peak intensity: 14740 ± 2815 arbitrary units
[12]; untreated: not detected
  dADP peak intensity: 6493 ± 3261 arbitrary units
  dCDP peak intensity: 6617 ± 188^∗∗∗ arbitrary units
[4]
  Ki: 29.7 ± 2.1 µM
[13]; detection limit 500 units (Fig. 13F)
  dTTP intensity: Not detectable
[13]; [14]
  dCMP peak intensity: 6006 ± 3089 arbitrary units
[13]; untreated: 304 ± 155
  dUrd peak intensity: 5414 ± 717^∗ arbitrary units
[13]; untreated: 1458
  dADP peak intensity: 8367 ± 1844^∗ arbitrary units
[13]; untreated: 2585 ± 811
  dAdo peak intensity: 5412 ± 1699 arbitrary units
[13]; untreated: not detected
  dCDP peak intensity: 4451 ± 1188^∗ arbitrary units
  dCTP peak intensity: 1569 ± 244 arbitrary units
